# From US20230416262A1, “TRPML MODULATORS” (Casma Therapeutics, Inc., priority 2020, published 2023)
# Test system: TFEB
# Test: TFEB nuclear translocation assay
# Type: cell-based
# Settings: Homo sapiens; HeLa wt or HeLa TRPML1 KO cells, treated for 2 hrs; ratio of nuclear to ring-region TFEB intensity
# Description: For the TFEB nuclear translocation assay, HeLa wt or HeLa TRPML1 KO cells were plated at 2700 cells/well into black-walled, 384-well Cell carrier Ultra tissue culture treated plates in complete media and incubated overnight. The next day, cells are treated for 2 hrs with compounds and incubated at 37° C. Cells were then fixed for 30 minutes at room temperature in 4% final PFA and washed five times with 90 μL PBS. PBS is aspirated from the wells and the cells are blocked with 7.5 μL blocking buffer (1.1 PBS/Odyssey block buffer containing 0.1% triton x-100 and 1% goat serum). After 30-60 minutes of block, 7.5 μL of primary anti-TFEB (rabbit) antibody is added for a final dilution of 1:200 antibody in 15 μL blocking buffer. Plates are incubated overnight at 4° C. The following day, plates are washed again into PBS, 90 μL with 5 washes, all PBS is aspirated from the wells and the cells are incubated for 1 hr in 1:1000 goat-anti rabbit Alexa 488 secondary antibody, also containing 10 μg/mL Hoechst 33342. After the 1 hr RT incubation, plates are washed a final time into PBS, sealed with foil and imaged with an automated epifluorescence microscopy (PerkinElmer Operetta CLS). Four different fields were imaged per well using ×20 magnification for DAPI and FITC filter sets. Images were quantified using PerkinElmer Harmony software, briefly: apply flatfield correction (basic/advanced) for input images. Use the Find Nuclei building block with channel set at Hoechst to find the nuclei. Use the Find cytoplasm building block with channel set to Alexa 488 to find the cytoplasm. Use select cell region with Channel set at Alexa 488 and region of interest as Nuclei and define outer border at 0 μm and inner at 45 μm to cover complete nuclei. Use select cell region with Channel set at Alexa 488 and region of interest as ring region and define outer border at −5 μm and inner at 0 μm to define a ring around the nucleus. Use the find calculate intensity parameter to calculate intensity of the nuclear region and the ring region. Define results as Number of nuclei and ratio of A/B where A is Intensity of Nuclei and B is intensity of the ring region.
row,EC50 [µM],Structure (SMILES)
1,≤ 2,"CN(C)S(=O)(=O)c1ccc(S(=O)(=O)N2CCC3(CCCCC3)c3ccccc32)cc1 [Compound I-128, 4-({2′,3′-dihydro-1′H-spiro[cyclohexane-1,4′-quinolin]-1′-yl}sulfonyl)-N,N-dimethylbenzene-1-sulfonamide]"
2,≥ 10,"CC(C)(O)c1ccc(S(=O)(=O)N2CC3(CCCC3)c3ccccc32)cc1 [Compound I-50, 2-[4-({1′,2′-dihydrospiro[cyclopentane-1,3′-indol]-1′-yl}sulfonyl)phenyl]propan-2-ol]"
3,≥ 10,"O=S(=O)(c1ccc2c(c1)COC2)N1CC2(CCCC2)c2ccccc21 [Compound I-36, 1′-(1,3-dihydro-2-benzofuran-5-sulfonyl)-1′,2′-dihydrospiro[cyclopentane-1,3′-indole]]"
4,2.01 to 8,"CC(C)C(=O)c1ccc(S(=O)(=O)N2CC3(CCCC3)c3ccccc32)cc1 [Compound I-3, 1-[4-({1′,2′-dihydrospiro[cyclopentane-1,3′-indol]-1′-yl}sulfonyl)phenyl]-2-methylpropan-1-one]"
5,≥ 10,"O=S(=O)(c1cnn(C2CCC2)c1)N1CC2(CCCC2)c2ccccc21 [Compound I-17, 1′-[(1-cyclobutyl-1H-pyrazol-4-yl)sulfonyl]-1′,2′-dihydrospiro[cyclopentane-1,3′-indole]]"
6,2.01 to 8,"CC1(C)OCc2ccc(S(=O)(=O)N3CC4(CCCC4)c4ccccc43)cc21 [Compound I-58, 1′-[(3,3-dimethyl-1,3-dihydro-2-benzofuran-5-yl)sulfonyl]-1′,2′-dihydrospiro[cyclopentane-1,3′-indole]]"
7,2.01 to 8,"O=S(=O)(c1cccc(C2CC2)c1)N1CC2(CCCC2)c2ccccc21 [Compound I-26, 1′-(3-cyclopropylbenzenesulfonyl)-1′,2′-dihydrospiro[cyclopentane-1,3′-indole]]"
8,2.01 to 8,O=S(=O)(c1ccc2c(c1)COCC2)N1CC2(CCCC2)c2ccccc21 [Compound I-37]
9,≥ 10,"CN1CCC2(C1)CN(S(=O)(=O)c1ccc(S(=O)(=O)N(C)C)cc1)c1ccccc12 (stereo not shown) [Compound I-90, N,N-dimethyl-4-({1′-methyl-1,2-dihydrospiro[indole-3,3′-pyrrolidin]-1-yl}sulfonyl)benzene-1-sulfonamide]"
10,2.01 to 8,"CN(C)S(=O)(=O)c1ccc(S(=O)(=O)N2CC3(CCC(O)CC3)c3ccccc32)cc1 (stereo not shown) [Compound I-72, 4-({4-hydroxy-1′,2′-dihydrospiro[cyclohexane-1,3′-indol]-1′-yl}sulfonyl)-N,N-dimethylbenzene-1-sulfonamide]"
11,8.01 to 9.99,"O=S(=O)(Cc1ccccc1)N1CC2(CCCC2)c2ccccc21 [Compound I-1, 1′-phenylmethanesulfonyl-1′,2′-dihydrospiro[cyclopentane-1,3′-indole]]"
12,≥ 10,"COC(=O)C(C)(C)c1ccc(S(=O)(=O)N2CC3(CCCC3)c3ccccc32)cc1 [Compound I-53, methyl 2-[4-({1′,2′-dihydrospiro[cyclopentane-1,3′-indol]-1′-yl}sulfonyl)phenyl]-2-methylpropanoate]"
13,≥ 10,"Cc1ccc(S(=O)(=O)N2CC3(CCCC3)c3ccccc32)cc1 [Compound I-13, 1′-(4-methylbenzenesulfonyl)-1′,2′-dihydrospiro[cyclopentane-1,3′-indole]]"
14,2.01 to 8,"CN(C)S(=O)(=O)c1ccc(S(=O)(=O)N2CC3(CCN(CC4CCOCC4)C3)c3ccccc32)cc1 (stereo not shown) [Compound I-96, N,N-dimethyl-4-({1′-[(oxan-4-yl)methyl]-1,2-dihydrospiro[indole-3,3′-pyrrolidin]-1-yl}sulfonyl)benzene-1-sulfonamide]"
15,2.01 to 8,"CN(C)S(=O)(=O)c1ccc(S(=O)(=O)N2CC3(CN(Cc4ccccc4)C3)c3ccccc32)cc1 [Compound I-102, 4-({1-benzyl-1′,2′-dihydrospiro[azetidine-3,3′-indol]-1′-yl}sulfonyl)-N,N-dimethylbenzene-1-sulfonamide]"
16,≥ 10,"CN(c1ccc(S(=O)(=O)N2CC3(CCCC3)c3ccccc32)cc1)S(C)(=O)=O [Compound I-52, N-[4-({1′,2′-dihydrospiro[cyclopentane-1,3′-indol]-1′-yl}sulfonyl)phenyl]-N-methylmethanesulfonamide]"
17,≥ 10,"O=S(=O)(CC(F)c1ccccc1)N1CC2(CCCC2)c2ccccc21 (stereo not shown) [Compound I-38, 1′-(2-fluoro-2-phenylethanesulfonyl)-1′,2′-dihydrospiro[cyclopentane-1,3′-indole]]"

row,EC50 [µM],Structure (SMILES)
1,2.01 to 8,"O=S(=O)(Cc1ccc(C(F)F)cc1)N1CC2(CCCC2)c2ccccc21 [Compound I-45, 1′-{[4-(difluoromethyl)phenyl]methanesulfonyl}-1′,2′-dihydrospiro[cyclopentane-1,3′-indole]]"
2,≥ 10,"O=S(=O)(c1ccc(OC(F)F)c(F)c1)N1CC2(CCCC2)c2ccccc21 [Compound I-23, 1′-[4-(difluoromethoxy)-3-fluorobenzenesulfonyl]-1′,2′-dihydrospiro[cyclopentane-1,3′-indole]]"
3,2.01 to 8,"CS(=O)(=O)c1ccc(S(=O)(=O)N2CC3(CCCC3)c3ccccc32)cc1 [Compound I-9, 1′-(4-methanesulfonylbenzenesulfonyl)-1′,2′-dihydrospiro[cyclopentane-1,3′-indole]]"
4,2.01 to 8,"O=S(=O)(c1ccc2c(c1)OC1(CCC1)O2)N1CC2(CCCC2)c2ccccc21 [Compound I-64, 1′-({spiro[1,3-benzodioxole-2,1′-cyclobutan]-6-yl}sulfonyl)-1′,2′-dihydrospiro[cyclopentane-1,3′-indole]]"
5,2.01 to 8,"O=S(=O)(c1cnn(C2CCCCC2)c1)N1CC2(CCCC2)c2ccccc21 [Compound I-18, 1′-[(1-cyclohexyl-1H-pyrazol-4-y1)sulfonyl]-1′,2′-dihydrospiro[cyclopentane-1,3′indole]]"
6,≥ 10,"Cc1cccc(CS(=O)(=O)N2CC3(CCCC3)c3ccccc32)c1 [Compound I-16, 1′-[(3-methylphenyl)methanesulfonyl]-1′,2′-dihydrospiro[cyclopentane-1,3′-indole]]"
7,≥ 10,"O=S(=O)(c1ccc2c(c1)CCOC2)N1CC2(CCCC2)c2ccccc21 [Compound I-59, 1′-(3,4-dihydro-1H-2-benzopyran-6-sulfonyl)-1′,2′-dihydrospiro[cyclopentane-1,3′-indole]]"
8,8.01 to 9.99,"Cc1ccc(S(=O)(=O)N2CC3(CCCC3)c3ccccc32)cc1F [Compound I-15, 1′-(3-fluoro-4-methylbenzenesulfonyl)-1′,2′-dihydrospiro[cyclopentane-1,3′-indole]]"
9,≤ 2,"CN(C)S(=O)(=O)c1ccc(S(=O)(=O)N2CC3(CCCCC3)n3nc(C(F)(F)F)cc32)cc1 [Compound I-153, N,N-dimethyl-4-{[6′-(trifluoromethyl)-1′,2′-dihydrospiro[cyclohexane-1,3′-pyrazolo[1,5-a]imidazol]-1′-yl]sulfonyl}benzene-1-sulfonamide]"
10,8.01 to 9.99,"CC(C)c1ccc(S(=O)(=O)N2CC3(CCCC3)c3ccccc32)cc1 [Compound I-4, 1′-[4-(propan-2-yl)benzenesulfonyl]-1′,2′-dihydrospiro[cyclopentane-1,3′-indole]]"
11,≥ 10,"CS(=O)(=O)Nc1ccc(S(=O)(=O)N2CC3(CCCC3)c3ccccc32)cc1 [Compound I-63, N-[4-({1′,2′-dihydrospiro[cyclopentane-1,3′-indol]-1′-yl}sulfonyl)phenyl]methanesulfonamide]"
12,≤ 2,"CN(C)S(=O)(=O)c1ccc(S(=O)(=O)N2CC3(CCN(c4ccc(Cl)cc4F)CC3)c3ccccc32)cc1 [Compound I-106, 4-{[1′-(4-chloro-2-fluorophenyl)-1,2-dihydrospiro[indole-3,4′-piperidin]-1-yl]sulfonyl}-N,N-dimethylbenzene-1-sulfonamide]"
13,≥ 10,"CC(CS(=O)(=O)N1CC2(CCCC2)c2ccccc21)c1ccccc1 (stereo not shown) [Compound I-117, 1′-(2-phenylpropanesulfonyl)-1′,2′-dihydrospiro[cyclopentane-1,3′-indole]]"
14,≥ 10,"CN1Cc2cc(S(=O)(=O)N3CC4(CCCC4)c4ccccc43)ccc2C1=O [Compound I-55, 5-({1′,2′-dihydrospiro[cyclopentane-1,3′-indol]-1′-yl}sulfonyl)-2-methyl-2,3-dihydro-1H-isoindol-1-one]"
15,≥ 10,"O=S(=O)(c1cncc(C(F)F)c1)N1CC2(CCCC2)c2ccccc21 [Compound I-20, 1′-{[S-(difluoromethyl)pyridin-3-yl]sulfonyl}-1′,2′-dihydrospiro[cyclopentane-1,3′-indole]]"
16,8.01 to 9.99,"O=S(=O)(C1=Cc2ccccc2OC1)N1CC2(CCCC2)c2ccccc21 [Compound I-41, 1′-(2H-chromene-3-sulfonyl)-1′,2′-dihydrospiro[cyclopentane-1,3′-indole]]"

row,Structure (SMILES),EC50 [µM]
1,"CN1CCC2(CC1)CN(S(=O)(=O)Cc1ccccc1)c1ccccc12 [Compound I-82, 1′-methyl-1-phenylmethanesulfonyl-1,2-dihydrospiro[indole-3,4′-piperidine]]",≥ 10
